# Test system: Staphylococcus aureus
# Assay: Antibacterial activity against Staphylococcus aureus ATCC 29213 assessed as inhibition of bacterial growth incubated for 24 hrs by CLSI based broth dilution method
# Assay type: functional
# Conditions: not given
row,Structure (SMILES),MIC [mg/L]
1,C=C[C@@](C)(/C=C/c1ccc(OCCCCN2CCCNCCNCCCNCC2)cc1)CCC=C(C)C,0.78
2,C=C[C@@](C)(/C=C/c1ccc(OCCCCN2CCNCCNCCNCCNCC2)cc1)CCC=C(C)C,1.56
3,C=C[C@@](C)(/C=C/c1ccc(OCCCCN)cc1)CCC=C(C)C,1.56

# Test system: Staphylococcus aureus
# Assay: Antibacterial activity against methicillin-resistant Staphylococcus aureus N315 assessed as inhibition of bacterial growth incubated for 24 hrs by CLSI based broth dilution method
# Assay type: functional
# Conditions: not given
row,Structure (SMILES),MIC [mg/L]
1,C=C[C@@](C)(/C=C/c1ccc(OCCCCN2CCCNCCNCCCNCC2)cc1)CCC=C(C)C,0.78
2,C=C[C@@](C)(/C=C/c1ccc(OCCCCN2CCNCCNCCNCCNCC2)cc1)CCC=C(C)C,0.78
3,C=C[C@@](C)(/C=C/c1ccc(OCCCCN)cc1)CCC=C(C)C,0.78

# Test system: Staphylococcus aureus
# Assay: Antibacterial activity against methicillin-resistant Staphylococcus aureus NCTC10442 assessed as inhibition of bacterial growth incubated for 24 hrs by CLSI based broth dilution method
# Assay type: functional
# Conditions: not given
row,Structure (SMILES),MIC [mg/L]
1,C=C[C@@](C)(/C=C/c1ccc(OCCCCN2CCCNCCNCCCNCC2)cc1)CCC=C(C)C,0.78
2,C=C[C@@](C)(/C=C/c1ccc(OCCCCN2CCNCCNCCNCCNCC2)cc1)CCC=C(C)C,1.56
3,C=C[C@@](C)(/C=C/c1ccc(OCCCCN)cc1)CCC=C(C)C,1.56

# Test system: Escherichia coli
# Assay: Antibacterial activity against Escherichia coli ATCC 25922 assessed as inhibition of bacterial growth incubated for 24 hrs by CLSI based broth dilution method
# Assay type: functional
# Conditions: not given
row,Structure (SMILES),MIC [mg/L]
1,C=C[C@@](C)(/C=C/c1ccc(OCCCCN2CCCNCCNCCCNCC2)cc1)CCC=C(C)C,3.12
2,C=C[C@@](C)(/C=C/c1ccc(OCCCCN2CCNCCNCCNCCNCC2)cc1)CCC=C(C)C,6.25
3,C=C[C@@](C)(/C=C/c1ccc(OCCCCN)cc1)CCC=C(C)C,12.5

# Test system: not listed separately
# Assay: Hemolytic activity in rabbit RBC measured after 1 hrs by multimode reader assay
# Assay type: toxicity, cell-based, Oryctolagus cuniculus, Erythrocyte
# Conditions: rabbit red blood cells (erythrocytes)
row,Structure (SMILES),HC50 at 1 h [µg/mL]
1,C=C[C@@](C)(/C=C/c1ccc(OCCCCN2CCCNCCNCCCNCC2)cc1)CCC=C(C)C,62.7
2,C=C[C@@](C)(/C=C/c1ccc(OCCCCN2CCNCCNCCNCCNCC2)cc1)CCC=C(C)C,75.2
3,C=C[C@@](C)(/C=C/c1ccc(OCCCCN)cc1)CCC=C(C)C,65.9

# Test system: Pseudomonas aeruginosa
# Assay: Antibacterial activity against Pseudomonas aeruginosa ATCC 9027 assessed as inhibition of bacterial growth incubated for 24 hrs by CLSI based broth dilution method
# Assay type: functional
# Conditions: not given
row,Structure (SMILES),MIC [mg/L]
1,C=C[C@@](C)(/C=C/c1ccc(OCCCCN2CCCNCCNCCCNCC2)cc1)CCC=C(C)C,12.5

# Test system: Acinetobacter baumannii
# Assay: Antibacterial activity against Acinetobacter baumannii ATCC 17978 assessed as inhibition of bacterial growth incubated for 24 hrs by CLSI based broth dilution method
# Assay type: functional
# Conditions: not given
row,Structure (SMILES),MIC [mg/L]
1,C=C[C@@](C)(/C=C/c1ccc(OCCCCN2CCCNCCNCCCNCC2)cc1)CCC=C(C)C,3.12

# Test system: Acinetobacter baumannii
# Assay: Antibacterial activity against Acinetobacter baumannii R2889 assessed as inhibition of bacterial growth incubated for 24 hrs by CLSI based broth dilution method
# Assay type: functional
# Conditions: not given
row,Structure (SMILES),MIC [mg/L]
1,C=C[C@@](C)(/C=C/c1ccc(OCCCCN2CCCNCCNCCCNCC2)cc1)CCC=C(C)C,3.12

# Test system: Klebsiella pneumoniae
# Assay: Antibacterial activity against Klebsiella pneumoniae ATCC 10031 assessed as inhibition of bacterial growth incubated for 24 hrs by CLSI based broth dilution method
# Assay type: functional
# Conditions: not given
row,Structure (SMILES),MIC [mg/L]
1,C=C[C@@](C)(/C=C/c1ccc(OCCCCN2CCCNCCNCCCNCC2)cc1)CCC=C(C)C,1.56

# Test system: Klebsiella pneumoniae
# Assay: Antibacterial activity against Klebsiella pneumoniae ATCC 14581 assessed as inhibition of bacterial growth incubated for 24 hrs by CLSI based broth dilution method
# Assay type: functional
# Conditions: not given
row,Structure (SMILES),MIC [mg/L]
1,C=C[C@@](C)(/C=C/c1ccc(OCCCCN2CCCNCCNCCCNCC2)cc1)CCC=C(C)C,3.12

# Test system: not listed separately
# Assay: Dissociation constant, pKa of compound by potentiometric titration method
# Assay type: physicochemical
# Conditions: not given
row,Structure (SMILES),pKa
1,C=C[C@@](C)(/C=C/c1ccc(OCCCCN)cc1)CCC=C(C)C,9.54

# Test system: Staphylococcus aureus
# Assay: Antibacterial activity against Staphylococcus aureus ATCC 29213 assessed as fold increase in MIC incubated for 24 hrs in presence of 140 mM Na+ by CLSI based broth dilution method
# Assay type: functional
# Conditions: not given
row,Structure (SMILES),fold change (FC)
1,C=C[C@@](C)(/C=C/c1ccc(OCCCCN2CCCNCCNCCCNCC2)cc1)CCC=C(C)C,<2
2,C=C[C@@](C)(/C=C/c1ccc(OCCCCN2CCNCCNCCNCCNCC2)cc1)CCC=C(C)C,<2

# Test system: Staphylococcus aureus
# Assay: Antibacterial activity against Staphylococcus aureus ATCC 29213 assessed as fold increase in MIC incubated for 24 hrs in presence of 4.5 mM K+ by CLSI based broth dilution method
# Assay type: functional
# Conditions: not given
row,Structure (SMILES),fold change (FC)
1,C=C[C@@](C)(/C=C/c1ccc(OCCCCN2CCCNCCNCCCNCC2)cc1)CCC=C(C)C,<2
2,C=C[C@@](C)(/C=C/c1ccc(OCCCCN2CCNCCNCCNCCNCC2)cc1)CCC=C(C)C,<2

# Test system: Staphylococcus aureus
# Assay: Antibacterial activity against Staphylococcus aureus ATCC 29213 assessed as fold increase in MIC incubated for 24 hrs in presence of 2.5 mM Ca2+ by CLSI based broth dilution method
# Assay type: functional
# Conditions: not given
row,Structure (SMILES),fold change (FC)
1,C=C[C@@](C)(/C=C/c1ccc(OCCCCN2CCCNCCNCCCNCC2)cc1)CCC=C(C)C,<2
2,C=C[C@@](C)(/C=C/c1ccc(OCCCCN2CCNCCNCCNCCNCC2)cc1)CCC=C(C)C,<2

# Test system: Staphylococcus aureus
# Assay: Antibacterial activity against Staphylococcus aureus ATCC 29213 assessed as fold increase in MIC incubated for 24 hrs in presence of 1 mM Mg2+ by CLSI based broth dilution method
# Assay type: functional
# Conditions: not given
row,Structure (SMILES),fold change (FC)
1,C=C[C@@](C)(/C=C/c1ccc(OCCCCN2CCCNCCNCCCNCC2)cc1)CCC=C(C)C,<2
2,C=C[C@@](C)(/C=C/c1ccc(OCCCCN2CCNCCNCCNCCNCC2)cc1)CCC=C(C)C,<2

# Test system: Staphylococcus aureus
# Assay: Antibacterial activity against Staphylococcus aureus NCTC10442 assessed as fold increase in MIC incubated for 24 hrs in presence of 140 mM Na+ by CLSI based broth dilution method
# Assay type: functional
# Conditions: not given
row,Structure (SMILES),fold change (FC)
1,C=C[C@@](C)(/C=C/c1ccc(OCCCCN2CCCNCCNCCCNCC2)cc1)CCC=C(C)C,<2
2,C=C[C@@](C)(/C=C/c1ccc(OCCCCN2CCNCCNCCNCCNCC2)cc1)CCC=C(C)C,<2

# Test system: Staphylococcus aureus
# Assay: Antibacterial activity against Staphylococcus aureus NCTC10442 assessed as fold increase in MIC incubated for 24 hrs in presence of 4.5 mM K+ by CLSI based broth dilution method
# Assay type: functional
# Conditions: not given
row,Structure (SMILES),fold change (FC)
1,C=C[C@@](C)(/C=C/c1ccc(OCCCCN2CCCNCCNCCCNCC2)cc1)CCC=C(C)C,<2
2,C=C[C@@](C)(/C=C/c1ccc(OCCCCN2CCNCCNCCNCCNCC2)cc1)CCC=C(C)C,<2

# Test system: Staphylococcus aureus
# Assay: Antibacterial activity against Staphylococcus aureus NCTC10442 assessed as fold increase in MIC incubated for 24 hrs in presence of 2.5 mM Ca2+ by CLSI based broth dilution method
# Assay type: functional
# Conditions: not given
row,Structure (SMILES),fold change (FC)
1,C=C[C@@](C)(/C=C/c1ccc(OCCCCN2CCCNCCNCCCNCC2)cc1)CCC=C(C)C,<2
2,C=C[C@@](C)(/C=C/c1ccc(OCCCCN2CCNCCNCCNCCNCC2)cc1)CCC=C(C)C,<2

# Test system: Staphylococcus aureus
# Assay: Antibacterial activity against Staphylococcus aureus NCTC10442 assessed as fold increase in MIC incubated for 24 hrs in presence of 1 mM Mg2+ by CLSI based broth dilution method
# Assay type: functional
# Conditions: not given
row,Structure (SMILES),fold change (FC)
1,C=C[C@@](C)(/C=C/c1ccc(OCCCCN2CCCNCCNCCCNCC2)cc1)CCC=C(C)C,<2
2,C=C[C@@](C)(/C=C/c1ccc(OCCCCN2CCNCCNCCNCCNCC2)cc1)CCC=C(C)C,<2

# Test system: Acinetobacter baumannii
# Assay: Antibacterial activity against Acinetobacter baumannii ATCC 17978 assessed as fold increase in MIC incubated for 24 hrs in presence of 140 mM Na+ by CLSI based broth dilution method
# Assay type: functional
# Conditions: not given
row,Structure (SMILES),fold change (FC)
1,C=C[C@@](C)(/C=C/c1ccc(OCCCCN2CCCNCCNCCCNCC2)cc1)CCC=C(C)C,<2
2,C=C[C@@](C)(/C=C/c1ccc(OCCCCN2CCNCCNCCNCCNCC2)cc1)CCC=C(C)C,<2

# Test system: Acinetobacter baumannii
# Assay: Antibacterial activity against Acinetobacter baumannii ATCC 17978 assessed as fold increase in MIC incubated for 24 hrs in presence of 4.5 mM K+ by CLSI based broth dilution method
# Assay type: functional
# Conditions: not given
row,Structure (SMILES),fold change (FC)
1,C=C[C@@](C)(/C=C/c1ccc(OCCCCN2CCCNCCNCCCNCC2)cc1)CCC=C(C)C,<2
2,C=C[C@@](C)(/C=C/c1ccc(OCCCCN2CCNCCNCCNCCNCC2)cc1)CCC=C(C)C,<2

# Test system: Acinetobacter baumannii
# Assay: Antibacterial activity against Acinetobacter baumannii ATCC 17978 assessed as fold increase in MIC incubated for 24 hrs in presence of 2.5 mM Ca2+ by CLSI based broth dilution method
# Assay type: functional
# Conditions: not given
row,Structure (SMILES),fold change (FC)
1,C=C[C@@](C)(/C=C/c1ccc(OCCCCN2CCCNCCNCCCNCC2)cc1)CCC=C(C)C,<2
2,C=C[C@@](C)(/C=C/c1ccc(OCCCCN2CCNCCNCCNCCNCC2)cc1)CCC=C(C)C,<2

# Test system: Acinetobacter baumannii
# Assay: Antibacterial activity against Acinetobacter baumannii ATCC 17978 assessed as fold increase in MIC incubated for 24 hrs in presence of 1 mM Mg2+ by CLSI based broth dilution method
# Assay type: functional
# Conditions: not given
row,Structure (SMILES),fold change (FC)
1,C=C[C@@](C)(/C=C/c1ccc(OCCCCN2CCCNCCNCCCNCC2)cc1)CCC=C(C)C,<2
2,C=C[C@@](C)(/C=C/c1ccc(OCCCCN2CCNCCNCCNCCNCC2)cc1)CCC=C(C)C,<2

# Test system: Escherichia coli
# Assay: Antibacterial activity against Escherichia coli ATCC 25922 assessed as fold increase in MIC incubated for 24 hrs in presence of 140 mM Na+ by CLSI based broth dilution method
# Assay type: functional
# Conditions: not given
row,Structure (SMILES),fold change (FC)
1,C=C[C@@](C)(/C=C/c1ccc(OCCCCN2CCCNCCNCCCNCC2)cc1)CCC=C(C)C,<2
2,C=C[C@@](C)(/C=C/c1ccc(OCCCCN2CCNCCNCCNCCNCC2)cc1)CCC=C(C)C,<2

# Test system: Escherichia coli
# Assay: Antibacterial activity against Escherichia coli ATCC 25922 assessed as fold increase in MIC incubated for 24 hrs in presence of 4.5 mM K+ by CLSI based broth dilution method
# Assay type: functional
# Conditions: not given
row,Structure (SMILES),fold change (FC)
1,C=C[C@@](C)(/C=C/c1ccc(OCCCCN2CCCNCCNCCCNCC2)cc1)CCC=C(C)C,<2
2,C=C[C@@](C)(/C=C/c1ccc(OCCCCN2CCNCCNCCNCCNCC2)cc1)CCC=C(C)C,<2

# Test system: Escherichia coli
# Assay: Antibacterial activity against Escherichia coli ATCC 25922 assessed as fold increase in MIC incubated for 24 hrs in presence of 2.5 mM Ca2+ by CLSI based broth dilution method
# Assay type: functional
# Conditions: not given
row,Structure (SMILES),fold change (FC)
1,C=C[C@@](C)(/C=C/c1ccc(OCCCCN2CCCNCCNCCCNCC2)cc1)CCC=C(C)C,<2
2,C=C[C@@](C)(/C=C/c1ccc(OCCCCN2CCNCCNCCNCCNCC2)cc1)CCC=C(C)C,<2

# Test system: Escherichia coli
# Assay: Antibacterial activity against Escherichia coli ATCC 25922 assessed as fold increase in MIC incubated for 24 hrs in presence of 1 mM Mg2+ by CLSI based broth dilution method
# Assay type: functional
# Conditions: not given
row,Structure (SMILES),fold change (FC)
1,C=C[C@@](C)(/C=C/c1ccc(OCCCCN2CCCNCCNCCCNCC2)cc1)CCC=C(C)C,<2
2,C=C[C@@](C)(/C=C/c1ccc(OCCCCN2CCNCCNCCNCCNCC2)cc1)CCC=C(C)C,<2

# Test system: Staphylococcus aureus
# Assay: Induction of drug resistance in Staphylococcus aureus ATCC 29213 assessed as fold change in MIC measured after 19 passages by CLSI based broth dilution method
# Assay type: functional
# Conditions: not given
row,Structure (SMILES),fold change (FC)
1,CCn1cc(C(=O)O)c(=O)c2cc(F)c(N3CCNCC3)cc21,32
